According to PubChem BioAssay (NCI):
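Method: 48-hour compound exposure of cells in 96-well plates, five concentrations, linear interpolation of endpoints. At the GI50, growth is halved. TGI denotes the concentration required for complete inhibition of growth.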

Assays:
Experiment in all cases: NCI-60 cell line screen, 48 h
[1] = system: BT-549 breast
[2] = system: DU-145 prostate
[3] = system: HS 578T breast
[4] = system: MDA-MB-435
[5] = system: MDA-N

O=C(O)[C@@H]1[C@H](C(=O)O)[C@H](C(=O)O)C[C@@H]1C(=O)O
TGI [1]: > 100 µM
TGI [2]: > 100 µM
TGI [3]: > 100 µM
TGI [4]: > 100 µM
TGI [5]: > 100 µM

O=C1C=C(NCCNC(=S)Nc2ccccc2)c2nccc3c2c1nc1ccccc13
GI50 [1]: 70.1 µM
TGI [1]: > 100 µM
GI50 [2]: 39.8 µM
TGI [2]: > 100 µM
GI50 [3]: > 100 µM
TGI [3]: > 100 µM
GI50 [4]: 15.6 µM
TGI [4]: 47.7 µM

COc1cc2c(c(OC)c1OC)-c1ccc(N)c(=O)cc1[C@@H](NC(C)=O)CC2
GI50 [1]: 0.0164 µM
TGI [1]: 0.0744 µM
GI50 [2]: 0.0291 µM
TGI [2]: 0.0951 µM
GI50 [3]: 0.0127 µM
TGI [3]: > 100 µM
GI50 [4]: < 0.01 µM

COc1cc(CCN)c2c(c1OC)SSSSS2
GI50 [1]: 0.793 µM
TGI [1]: 2.23 µM
GI50 [2]: 0.276 µM
TGI [2]: 1.22 µM
GI50 [3]: 2.11 µM
TGI [3]: 5.17 µM
GI50 [4]: 1.63 µM
TGI [4]: 3.32 µM
GI50 [5]: 0.706 µM
TGI [5]: 2.21 µM

COc1ccc(Nc2ncc(Br)c(NCCCNC(=O)C3CCC3)n2)cc1
GI50 [1]: 3.62 µM
TGI [1]: 15.9 µM
GI50 [2]: 20.5 µM
TGI [2]: > 100 µM
GI50 [3]: 3.23 µM
TGI [3]: 9.2 µM
GI50 [4]: 36.1 µM
TGI [4]: > 100 µM

CCOC(=O)C1=C(C(=O)c2ccc(C)cc2)C(c2cccc([N+](=O)[O-])c2)C(C(=O)c2ccc(C)cc2)=C(C(=O)OCC)N1
TGI [1]: > 100 µM
TGI [2]: 32.2 µM
TGI [3]: 63.9 µM
TGI [4]: 33.2 µM

O=C1c2ccc([N+](=O)[O-])cc2-c2c1c1ccccc1c(=O)n2CCCNCCCNCCCn1c2c(c3ccc([N+](=O)[O-])cc3c1=O)C(=O)c1ccccc1-2
GI50 [1]: 4.91 µM
TGI [1]: 37.2 µM
GI50 [2]: 0.667 µM
TGI [2]: 2.03 µM
GI50 [3]: 1.43 µM
TGI [3]: 22.7 µM
GI50 [4]: 3.88 µM
TGI [4]: > 46.6 µM

Oc1ccc(C(c2ccc(O)cc2)c2ccc(Cl)cn2)cc1
GI50 [1]: 0.0231 µM
TGI [1]: 0.0707 µM
GI50 [2]: 1.06 µM
TGI [2]: > 100 µM
GI50 [3]: 0.0216 µM
TGI [3]: 0.0624 µM
GI50 [4]: 23.3 µM
TGI [4]: > 86.2 µM

CCCCCCCNc1nc(C(=O)OCC)ncc1-c1ccc(C(F)(F)F)cc1
GI50 [1]: 29.1 µM
TGI [1]: 97.7 µM
GI50 [2]: 46.1 µM
TGI [2]: > 100 µM
GI50 [3]: 46.6 µM
TGI [3]: > 100 µM
GI50 [4]: 32.1 µM
TGI [4]: > 100 µM

O=[N+]([O-])c1ccc(S(=O)Cc2ccccc2)c([N+](=O)[O-])c1 (configuration not stated)
GI50 [1]: 2.09 µM
TGI [1]: 7.37 µM
GI50 [2]: 11 µM
TGI [2]: 23 µM
GI50 [3]: 21.4 µM
TGI [3]: > 100 µM
GI50 [4]: 2.51 µM
TGI [4]: 7.69 µM

COc1ccccc1/C=C/[N+](=O)[O-]
GI50 [1]: 2.09 µM
TGI [1]: 4.13 µM
GI50 [2]: 1.95 µM
TGI [2]: 3.63 µM
GI50 [3]: 2.79 µM
TGI [3]: 8.83 µM
GI50 [4]: 2.59 µM
TGI [4]: 10.5 µM

C=C1SC(=Nc2c(C)cc(C)cc2C)N(C(=O)c2sc3ccccc3c2Cl)C12CCCCC2
GI50 [1]: > 100 µM
TGI [1]: > 100 µM
GI50 [2]: > 100 µM
TGI [2]: > 100 µM
GI50 [3]: > 100 µM
TGI [3]: > 100 µM
GI50 [4]: > 100 µM
TGI [4]: > 100 µM

CCN(CC)CCNc1ccc([N+](=O)[O-])c2sc3ccccc3c(=O)c12
GI50 [1]: 1.74 µM
TGI [1]: 7.8 µM
GI50 [2]: 0.766 µM
TGI [2]: 2.05 µM
GI50 [3]: 2.17 µM
TGI [3]: 8.15 µM
GI50 [4]: 0.901 µM
TGI [4]: 2.32 µM

O=C(c1ccc2ccccc2c1)c1c(C(F)(F)F)n([O-])c2cc(F)c(F)cc2[n+]1=O
GI50 [1]: 1.89 µM
TGI [1]: 4.17 µM
GI50 [2]: 1.46 µM
TGI [2]: 4.33 µM
GI50 [4]: 1.96 µM
TGI [4]: 4.12 µM

CCc1n(Cc2ccc3ccccc3n2)cc[n+]1Cc1ccc2ccccc2n1
GI50 [1]: 0.278 µM
TGI [1]: 11.2 µM
GI50 [2]: 1.93 µM
TGI [2]: 51.7 µM
GI50 [3]: 1.88 µM
TGI [3]: 26.1 µM
GI50 [4]: 0.141 µM
TGI [4]: 10.3 µM

O=C(/C=C/C12c3ccccc3C(c3ccccc31)C1C(=O)N(c3ccccc3)C(=O)C12)c1ccccc1 (configuration not stated)
GI50 [1]: 1.37 µM
TGI [1]: 3.02 µM
GI50 [2]: 2.14 µM
TGI [2]: 6.03 µM
GI50 [3]: 2.32 µM
TGI [3]: > 100 µM
GI50 [4]: 2.56 µM
TGI [4]: > 100 µM

O=C1C(c2c[nH]c3ccccc23)=C(c2c[nH]c3ccccc23)C(=O)N1O
GI50 [1]: > 25 µM
TGI [1]: > 25 µM
GI50 [2]: > 25 µM
TGI [2]: > 25 µM
GI50 [3]: > 19.7 µM
TGI [3]: > 25 µM
GI50 [4]: > 25 µM
TGI [4]: > 25 µM

COc1ccc2c(c1)C(=O)c1c-2n(CCCN=[N+]=[N-])c(=O)c2cc(N(C)C)ccc12
GI50 [1]: 6.15 µM
TGI [1]: > 100 µM
GI50 [2]: > 100 µM
TGI [2]: > 100 µM
GI50 [3]: 37.5 µM
TGI [3]: > 100 µM
GI50 [4]: > 100 µM
TGI [4]: > 100 µM

CC1(C)CC[C@H](Nc2ncc(C(F)(F)F)c(-c3c[nH]c4c(P(C)(C)=O)c(C#N)ccc34)n2)CN1
GI50 [1]: 0.0758 µM
TGI [1]: 3.67 µM
GI50 [2]: 0.52 µM
TGI [2]: > 36.4 µM
GI50 [3]: 0.736 µM
TGI [3]: 10.6 µM
GI50 [4]: 0.038 µM
TGI [4]: 12 µM

FC(F)(F)c1cc(-c2nnc3n2N=C(N2CCCC2)CS3)cc(C(F)(F)F)c1
GI50 [1]: > 50 µM
TGI [1]: > 50 µM
GI50 [2]: > 50 µM
TGI [2]: > 50 µM
GI50 [3]: 17.9 µM
TGI [3]: > 50 µM
GI50 [4]: > 50 µM
TGI [4]: > 50 µM

CCCCS(=O)CCC(N)C(=O)O (configuration not stated)
TGI [1]: > 100 µM
TGI [2]: > 100 µM
TGI [3]: > 100 µM
TGI [5]: > 100 µM

CCCc1c(CC)c(=N)c2ccccc2n1C
GI50 [1]: 44.2 µM
TGI [1]: > 100 µM
GI50 [2]: > 100 µM
TGI [2]: > 100 µM
GI50 [3]: > 100 µM
TGI [3]: > 100 µM
GI50 [4]: > 100 µM
TGI [4]: > 100 µM

Cc1c(S(C)(=O)=O)c(-c2cc(F)cc(N3CCN(c4ccc(NS(=O)(=O)c5ccc(N[C@H](CCN6CCC(C(=O)OCCCP(=O)(O)O)CC6)CSc6ccccc6)c(S(=O)(=O)C(F)(F)F)c5)cc4)CC3)c2)c(-c2ccc(Cl)cc2)n1C(C)C
GI50 [1]: > 100 µM
TGI [1]: > 100 µM
GI50 [2]: > 100 µM
TGI [2]: > 100 µM
GI50 [3]: > 100 µM
TGI [3]: > 100 µM
GI50 [4]: > 100 µM
TGI [4]: > 100 µM

C/C(=N\O)c1cccc(Nc2cc(-n3ccnn3)c3ccccc3n2)c1
GI50 [1]: 18.9 µM
TGI [1]: 53.9 µM
GI50 [2]: 17.5 µM
TGI [2]: 37.2 µM
GI50 [3]: 16.4 µM
TGI [3]: 87.8 µM
GI50 [4]: 15.4 µM
TGI [4]: 34.2 µM

C=CCN(/C=C1/C(=O)O[C@H](COC)[C@@]2(C)C1=C(O)C(=O)C1=C2[C@H](OC(C)=O)C[C@]2(C)C(=O)CC[C@@H]12)CC=C
GI50 [1]: 0.141 µM
TGI [1]: 4.12 µM
GI50 [2]: 2.43 µM
TGI [2]: > 10 µM
GI50 [3]: 0.128 µM
TGI [3]: 1.94 µM
GI50 [4]: 2.68 µM
TGI [4]: > 10 µM

COc1ccc(C2SCC(=O)N2NC(=O)C(O)c2ccccc2)cc1OC (configuration not stated)
GI50 [1]: > 100 µM
TGI [1]: > 100 µM
GI50 [2]: > 100 µM
TGI [2]: > 100 µM
GI50 [3]: > 100 µM
TGI [3]: > 100 µM
GI50 [4]: > 100 µM
TGI [4]: > 100 µM

CCn1c(C(=O)N(C2CC2)C2CC2)cc2c3c(ncn3C)c(Nc3cc(C)n(C)n3)nc21
GI50 [1]: > 100 µM
TGI [1]: > 100 µM
GI50 [2]: > 100 µM
TGI [2]: > 100 µM
GI50 [3]: 3.63 µM
TGI [3]: > 100 µM
GI50 [4]: > 100 µM
TGI [4]: > 100 µM

Cc1ccc(S(=O)(=O)NCCNC2=CC(=O)c3nc4ccccc4c4ccnc2c34)cc1
GI50 [1]: 19.2 µM
TGI [1]: 46.1 µM
GI50 [2]: 19.1 µM
TGI [2]: 51.5 µM
GI50 [3]: 27 µM
TGI [3]: 79.9 µM
GI50 [4]: 17.7 µM
TGI [4]: 41.2 µM

O=Nc1c(-c2c(O)[nH]c3ccc([N+](=O)[O-])cc23)[nH]c2ccc(O)cc12
GI50 [1]: 0.463 µM
TGI [1]: > 100 µM
GI50 [2]: 0.305 µM
GI50 [3]: 0.345 µM
TGI [3]: > 100 µM
GI50 [4]: 0.406 µM
TGI [4]: > 57.8 µM

C[C@H](NC(=O)[C@@H]1CSSC[C@@H](NC(=O)c2nc3ccccc3cc2O)C(=O)NCC(=O)N1C)c1ccccc1
GI50 [1]: 6.88 µM
TGI [1]: 16.1 µM
GI50 [2]: 5.78 µM
TGI [2]: 12.7 µM
GI50 [3]: 11.2 µM
TGI [3]: 34.1 µM
GI50 [4]: 0.737 µM
TGI [4]: 6.59 µM

COc1ccc(-c2nc3sc(-c4ccc(Cl)cc4)cn3n2)cc1
GI50 [1]: 43.2 µM
TGI [1]: > 50 µM
GI50 [2]: > 50 µM
TGI [2]: > 50 µM
GI50 [3]: 2.31 µM
TGI [3]: > 50 µM
GI50 [4]: > 50 µM
TGI [4]: > 50 µM

CN1CCN(c2ccc(NC(=O)c3nc4ccc5[nH]ncc5c4c4c3CCCC4)cc2C(F)(F)F)CC1
GI50 [1]: 6.07 µM
TGI [1]: 12.4 µM
GI50 [2]: 1.03 µM
TGI [2]: 2.15 µM
GI50 [3]: 5.99 µM
TGI [3]: 19.4 µM
GI50 [4]: 0.899 µM
TGI [4]: 1.74 µM

Cc1ccc(/C(=N\N=C(N)N)c2ccccc2)cc1
GI50 [1]: 0.744 µM
TGI [1]: 7.62 µM
GI50 [2]: 0.41 µM
TGI [2]: 10.4 µM
GI50 [3]: 0.349 µM
TGI [3]: 3.67 µM
GI50 [4]: 0.203 µM
TGI [4]: 0.631 µM

O=C(Nc1ccc(F)cc1)c1ccc(NC2=C(Cl)C(=O)N(Cc3ccccc3)C2=O)cc1
GI50 [1]: 3.14 µM
TGI [1]: 10.8 µM
GI50 [2]: 6.48 µM
TGI [2]: 29.8 µM
GI50 [3]: 13.2 µM
TGI [3]: 62.3 µM
GI50 [4]: 7.07 µM
TGI [4]: 26.3 µM

CC(C)CNCC(O)COc1ccc(C(C)(C)c2ccc(OCC(O)CNCC(C)C)cc2)cc1 (configuration not stated)
GI50 [1]: 7.82 µM
TGI [1]: 21 µM
GI50 [2]: 2.46 µM
TGI [2]: 7.49 µM
GI50 [3]: 5 µM
TGI [3]: 21.9 µM
GI50 [4]: 1.73 µM
TGI [4]: 3.29 µM
